# According to paper PMC9405451, “Uptake and Immunomodulatory Properties of Betanin, Vulgaxanthin I and Indicaxanthin towards Caco-2 Intestinal Cells” (Antioxidants, 2022):
# Where two headings read alike, the source gives them in different places.
# Columns and labels:
# [1] = tested on: Caco-2 cells; experiment: Intracellular ROS formation (DCFH2-DA) in H2O2-stressed Caco-2 cells; type: cell-based, human; settings: 200 μM H2O2
# Protocol: The generation of reactive oxygen species (ROS) within Caco-2 cells was determined in 96-well plates with the probe 2′,7′-dichlorodihydrofluorescein diacetate (DCFH2-DA), which is intracellularly deacetylated and oxidised to highly fluorescent 2′,7′-dichlorofluorescein (DCF). DCFH2-DA (30 µM) dissolved in PBS with 1% FBS (v/v) was applied to the confluent Caco-2 cells and incubated for 40 min at 37 °C. After washing, cells were treated with BET, VUL and IND (5–80 μM) for 1 h and subsequently stressed with H2O2 (200 μM) for a further 1 h. The plate was scanned using Tecan Spark 10M^TM with excitation λ of 485 nm and emission λ of 535 nm. Subsequently, the protein content of each well was determined by SRB assay. Briefly, the medium was removed and the cells were washed with PBS and submerged with 50 μL of 0.004% SRB solution (w/v) in 10% trichloroacetic acid (w/v). Cells were incubated at room temperature for 15 min and washed with 1% acetic acid (200 μL, v/v). After treating with Tris base (10 mM, 100 μL), cells were incubated for 5 min under shaking conditions. Finally, the plate was scanned using a Tecan plate reader with excitation λ of 540 nm and emission λ of 590 nm. Results of the ROS assay were normalised to the relative protein content for each well and expressed as the relative fluorescence intensity % (RFI) with respect to the value of positive control.
# [2] = tested on: IL-6; experiment: IL-6 mRNA level (qPCR) in cytokine-stimulated Caco-2 cells; type: cell-based, human; settings: 5–80 μM, 6 h cytokine stimulation, maximum effect
# Protocol: (§1) Confluent Caco-2 cells were stimulated with a cocktail of cytokines comprised of tumour necrosis factor-α (TNF-α, 20 ng mL^−1), interleukin-1β (IL-1β, 40 ng mL^−1), interferon-γ (IFN-γ, 10 ng mL^−1) and lipopolysaccharide (LPS, 100 ng mL^−1) in the presence or absence of BET, VUL and IND treatments (5–80 µM) for 6 h. With the completion of incubations, cells were washed with cold DPBS and lysed with TRIsure reagent (Scientific Laboratory Supplies Ltd.). Total RNA of cell samples was extracted in accordance with the manufacturer’s instructions. After resuspending the RNA pellets in DEPC water, concentration and quality were determined using the NanoQuant plate (Tecan Spark 10M plate reader) at 260 and 280 nm. Reverse transcription of RNA was achieved using the iScript™ cDNA Synthesis Kit (Bio-Rad). Transcription levels of target genes—interleukin 6 (IL-6), IL-8, COX-2, iNOS, NADPH oxidase 1 (NOX-1), NAD(P)H quinone dehydrogenase 1 (NQO-1), heme oxygenase 1 (HO-1), glutamate-cysteine ligase catalytic subunit (GCLC), glutathione peroxidase 1 (GPX-1), glutathione S-transferase 1 (GSTA-1) and GSTP-1 were evaluated using SybrGreen based reagent (SensiFast SYBR Green, SLS Ltd., Galveston, TX, USA) via real-time qPCR using StepOne Plus Real-Time PCR System (Applied Biosystems, Nottingham, UK). Primers of target genes were designed and blasted using the NCBI database, whose PCR product sizes were confirmed by 2% agarose gel electrophoresis. The list of primer sequences used in the study is presented in Supplemental Table S1. The calculation of target gene levels was based upon the Livak (2^−ΔΔCT) method with normalisation to the housekeeping gene, β-actin [31].
# [3] = tested on: differentiated Caco-2 cells; experiment: Intracellular accumulation in differentiated Caco-2 cells; type: in vitro ADME, human; settings: 250 μM, 2 h incubation in HBSS
# Protocol: For accumulation experiments, differentiated Caco-2 cells were incubated with purified BET, VUL and IND (250 μM) for 2 h in HBSS. The cell layer was washed twice with DPBS prior to being scraped into methanol, and pigments were subsequently extracted for LC-MS analysis. The total protein content of lysed cells was determined by bicinchoninic acid (BCA) assay (Pierce™ Thermo Scientific) in accordance with the manufacturer’s instructions.
# Betalain compounds from the cell culture samples were quantified and identified by an ultra-high-speed LC fitted with a UV-Vis detector (SPD-20A), followed by a single quadrupole MS with an electrospray ionisation source (ESI) (Shimazu, 2020). HPLC separation was performed by a reverse phase C18 column (100 mm × 2.1 mm I.D., 3.5 μm) at the temperature of 35 °C. […] Betacyanins and betaxanthins were detected at the wavelengths of 536 nm and 486 nm, respectively, and their molecular weights were monitored by ESI-MS with positive ion mode. Compounds were identified based on the m/z values and quantified using standard curves with purified betalains, as shown in Supplemental Figure S1.
# [4] = tested on: GSTA-1; experiment: GSTA-1 mRNA level (qPCR) in cytokine-stimulated Caco-2 cells; type: cell-based, human; settings: 5–80 μM, 6 h cytokine stimulation, vs SC
# Protocol: as §1, with “Primers of target genes were designed and blasted using the NCBI database, whose PCR product sizes were confirmed by 2% agarose gel electrophoresis. The list of primer sequences used in the study is presented in Supplemental Table S1. The calculation of target gene levels was based upon the Livak (2^−ΔΔCT) method with normalisation to the housekeeping gene, β-actin [31].” left out
# [5] = design: method as in PMID 18959410; settings: cited from earlier work
# [6] = tested on: GPX-1; experiment: GPX-1 mRNA level (qPCR) in cytokine-stimulated Caco-2 cells; type: cell-based, human; settings: 5–80 μM, 6 h cytokine stimulation, vs SC
# Protocol: as §1, with “Primers of target genes were designed and blasted using the NCBI database, whose PCR product sizes were confirmed by 2% agarose gel electrophoresis. The list of primer sequences used in the study is presented in Supplemental Table S1. The calculation of target gene levels was based upon the Livak (2^−ΔΔCT) method with normalisation to the housekeeping gene, β-actin [31].” left out
# [7] = tested on: iNOS; experiment: iNOS mRNA level (qPCR) in cytokine-stimulated Caco-2 cells; type: cell-based, human; settings: 5–80 μM, 6 h cytokine stimulation, maximum effect
# Protocol: as §1, with “Primers of target genes were designed and blasted using the NCBI database, whose PCR product sizes were confirmed by 2% agarose gel electrophoresis. The list of primer sequences used in the study is presented in Supplemental Table S1. The calculation of target gene levels was based upon the Livak (2^−ΔΔCT) method with normalisation to the housekeeping gene, β-actin [31].” left out
# [8] = tested on: IL-8; experiment: IL-8 mRNA level (qPCR) in cytokine-stimulated Caco-2 cells; type: cell-based, human; settings: 5–80 μM, 6 h cytokine stimulation, maximum effect
# Protocol: as §1
# [9] = tested on: NOX-1; experiment: NOX-1 mRNA level (qPCR) in cytokine-stimulated Caco-2 cells; type: cell-based, human; settings: 5–80 μM, 6 h cytokine stimulation, maximum effect
# Protocol: as §1, with “Primers of target genes were designed and blasted using the NCBI database, whose PCR product sizes were confirmed by 2% agarose gel electrophoresis. The list of primer sequences used in the study is presented in Supplemental Table S1. The calculation of target gene levels was based upon the Livak (2^−ΔΔCT) method with normalisation to the housekeeping gene, β-actin [31].” left out
# [10] = tested on: COX-2; experiment: COX-2 mRNA level (qPCR) in cytokine-stimulated Caco-2 cells; type: cell-based, human; settings: 5–80 μM, 6 h cytokine stimulation, maximum effect
# Protocol: as §1, with “Primers of target genes were designed and blasted using the NCBI database, whose PCR product sizes were confirmed by 2% agarose gel electrophoresis. The list of primer sequences used in the study is presented in Supplemental Table S1. The calculation of target gene levels was based upon the Livak (2^−ΔΔCT) method with normalisation to the housekeeping gene, β-actin [31].” left out
# [11] = tested on: GCLC; experiment: GCLC mRNA level (qPCR) in cytokine-stimulated Caco-2 cells; type: cell-based, human; settings: 5–80 μM, 6 h cytokine stimulation, vs SC
# Protocol: as §1, with “Primers of target genes were designed and blasted using the NCBI database, whose PCR product sizes were confirmed by 2% agarose gel electrophoresis. The list of primer sequences used in the study is presented in Supplemental Table S1. The calculation of target gene levels was based upon the Livak (2^−ΔΔCT) method with normalisation to the housekeeping gene, β-actin [31].” left out
Compound,Reduction of H2O2-stimulated ROS ([1]; at 80 μM),Downregulation of IL-6 expression vs cytokine control (SC) [2],Intracellular accumulation [3],Induction of GSTA-1 expression [4],Loss along the digestion [5],Upregulation of GPX-1 expression [6],Reduction of iNOS mRNA levels [7],Downregulation of IL-8 expression vs cytokine control (SC) [8],Attenuation of NOX-1 mRNA levels [9],Attenuation of COX-2 mRNA levels [10],Upregulation of GCLC expression [11],Suppression of H2O2-stimulated ROS ([1]; throughout concentration range 5–80 μM),Loss along the digestion ([5]; purified compound)
"O=C(O)C1=C/C(=C/C=[N+]2/CCC[C@H]2C(=O)[O-])C[C@@H](C(=O)O)N1 [IND, indicaxanthin]",14%,up to 50%,0.03 nmol per mg of protein,< 50%,minor loss,< 26%,< 42%,≤ 39%,up to 34%,up to 34%,< 25%,,
"O=C(O)C1=C/C(=C/C=[N+]2/c3cc(O)c(O[C@@H]4O[C@H](CO)[C@@H](O)[C@H](O)[C@H]4O)cc3C[C@H]2C(=O)[O-])C[C@@H](C(=O)O)N1 [BET, betanin]",,up to 50%,0.02 nmol per mg of protein,< 51%,,< 23%,< 42%,≤ 39%,up to 34%,up to 34%,< 33%,< 64%,up to 70%
